According to patent publication US20240158378A1, “SOLID FORMS OF A 4H-PYRAN-4-ONE STRUCTURED CYP11A1 INHIBITOR” (Orion Corporation, priority 2021, published 2024):
Values belong to the molecule of their own block, whether it stands above or below them.

What was measured:
Format in all cases: physicochemical
[1] = Slurry experiment (ageing in solvents, XRPD analysis)
Protocol: (§1) XRPD measurements were performed with the X-ray powder diffractometer Bruker D8 Advance at room temperature using copper filled X-ray tube (40 kV×40 mA) as the X-ray source, CuKα (λ=1.5418 Å), a fixed 0.6 mm divergence slit, 0.0125 mm Ni filter and a 2.5° primary Soller slit, and a LynxEye 1-dimensional detector with a 2.5° secondary Soller slit. Data collection was done in 0.02° steps at a scan speed of 0.3°/s, in the range of 3-33° 2θ.
Samples of 20 mg of crystalline form 5 (water content 0.3-0.6) of compound (I) were dispensed in 300 μl of various solvents defined in Table 13 at room temperature (RT) or at 40° C. under magnetic stirring (600-1000 rpm). The resulting suspensions were aged for 1 week at the respective temperatures. After the ageing period the samples were recovered, air-dried at RT and analyzed by XRPD.

[2] = Storage at room temperature in a closed container, re-analysis by XRPD; conditions: two weeks
Protocol: as §1
Crystalline form 4 of compound (I) was stored at room temperature in a closed container.

[3] = Grinding with water in a ball mill, XRPD analysis; conditions: 25-30 mg ground with 80 μl of water, Retsch ball mill, 1.5 h, 30 Hz
Protocol: as §1
25-30 mg of crystalline form 3 of compound (I) was ground with 80 μl of water using a Retsch ball mill. Water addition was done in two steps, with total grinding time of 1.5 h and v=30 Hz.

- solid form after ageing of the suspension (XRPD) ([1]; 20 mg in 300 μl of the solvents of Table 13, RT or 40° C., magnetic stirring, aged for 1 week): crystalline form 5 (water content 0.3)
SMILES: CS(=O)(=O)N1CCC(COc2coc(CN3Cc4ccccc4C3)cc2=O)CC1 [2-(isoindolin-2-ylmethyl)-5-((1-(methylsulfonyl)piperidin-4-yl)methoxy)-4H-pyran-4-one]

SMILES: CS(=O)(=O)N1CCC(COc2coc(CN3Cc4ccccc4C3)cc2=O)CC1 [Crystalline form 4, 2-(isoindolin-2-ylmethyl)-5-((1-(methylsulfonyl)piperidin-4-yl)methoxy)-4H-pyran-4-one]
- solid form after storage (XRPD) [2]: mixture of crystalline form 4 and crystalline form 3

- solid form after grinding with water (XRPD) [3]: crystalline form 2
SMILES: CS(=O)(=O)N1CCC(COc2coc(CN3Cc4ccccc4C3)cc2=O)CC1 [crystalline form 3, 2-(isoindolin-2-ylmethyl)-5-((1-(methylsulfonyl)piperidin-4-yl)methoxy)-4H-pyran-4-one]

SMILES: CS(=O)(=O)N1CCC(COc2coc(CN3Cc4ccccc4C3)cc2=O)CC1 [form 5, 2-(isoindolin-2-ylmethyl)-5-((1-(methylsulfonyl)piperidin-4-yl)methoxy)-4H-pyran-4-one]
- solid form stability in slurry ([1]; suspensions in the solvents of Table 13, 1 week, RT or 40° C.): stable in conditions with lower water activity
